Drawing on ChEMBL document CHEMBL1133160, “Molecular modeling of the aldose reductase-inhibitor complex based on the X-ray crystal structure and studies with single-site-directed mutants” (J Med Chem, 2000), this text covers Ratio and IC50 for seven compounds.

Experiment [1] can be described thus: Inhibitory Activity ratio (IC50 ratio) calculated by Human recombinant aldose reductase wild type against Mutant Aldose reductase (W20A).
Experiment [2] concerns the target Aldo-keto reductase family 1 member B1 (Homo sapiens, UniProt P15121). Put plainly: Inhibitory Activity against Human recombinant Aldose Reductase (wild type).
A short description of experiment [3]: Inhibitory Activity ratio (IC50 ratio) calculated by Human recombinant aldose reductase wild type against Mutant Aldose reductase (W111A).
A short description of experiment [4]: Inhibitory Activity ratio (IC50 ratio) calculated by Human recombinant aldose reductase wild type against Mutant Aldose reductase (W20Y).
A short description of experiment [5]: Inhibitory Activity ratio (IC50 ratio) calculated by Human recombinant aldose reductase wild type against Mutant Aldose reductase (W111Y).

Bounds are passed on as bounds.

Regarding `O=C(O)CC1C(=O)N(Cc2ccc(Br)cc2F)C(=O)c2ccc(F)cc21` (stereo not given), the Ratio is 311 in experiment [1], 120 in experiment [3], 21 in experiment [4] and 193 in experiment [5]. Also, the IC50 (usually the midpoint of a concentration-inhibition curve) in experiment [2] amounted to 0.227 µM.
`O=C1CC2(C(=O)N1)C(=O)N(Cc1nc3cc(C(F)(F)F)ccc3s1)C(=O)c1ccc(F)cc12` (stereo not given): the Ratio in experiment [1] was 1; in experiment [3], 19; in experiment [4], 0.1; in experiment [5], 2. The 50% inhibitory concentration (IC50) in experiment [2] was found to be 0.144 µM.
The corresponding values for `CN1C(=O)c2ccc(F)cc2C2(CC(=O)NC2=O)C1=O` (stereo not given) are 1670, 2730, 3, 773 and 0.0732 µM.
The corresponding values for `O=C1NC(=O)C2(N1)c1cc(F)ccc1-c1ccc(F)cc12` are 9140, 781, 48, 1960 and 0.0547 µM.
Turning to `O=C(O)Cn1c(=O)n(Cc2ccc(Br)cc2F)c(=O)c2ccc(Cl)cc21` [ZENARESTAT], the Ratio in experiment [1] was 448; in experiment [3], 786; in experiment [4], 2.5; in experiment [5] it was 12. Also, the IC50 in experiment [2] is 0.0424 µM.
On to `O=C(O)Cc1nn(Cc2ccc(Br)cc2F)c(=O)c2ccccc12` [PONALRESTAT], for which the Ratio in experiment [1] was 1770; in experiment [3], 1770; in experiment [4], 47; in experiment [5] it was 58. Moreover, the IC50 in experiment [2] was 0.0665 µM.
Turning to `CN1C(=O)c2ccc(Cl)cc2C2(CC(=O)NC2=O)C1=O` (stereo not given), the Ratio was 1070 in experiment [1], more than 1280 in experiment [3], 1.5 in experiment [4] and 324 in experiment [5]. Besides, the IC50 in experiment [2] came out at 0.0782 µM.
